Drawing on US10815276B2, “Cell penetrating peptides and methods of making and using thereof” (Entrada Therapeutics, Inc., priority 2014, dated 2020), this text covers Kd for 12 compounds.

Starred links: 1 amine or outer side, 2 acyl side, 3 side chain; linkers in the order of their positions; H or OH if unused. Positions of bridges follow the written chain, without caps; N, C: chain ends. Non-standard residues stand in square brackets, D forms with d. Residues, ends and D or L forms follow the SMILES beside them. Trimesoyl = O=C(c1cc(C(=O)[*:2])cc(C(=O)[*:3])c1)[*:1]; Phe(3,4-F2) = N[C@@H](Cc1ccc(F)c(F)c1)C(=O)O; dPhe(4-CN) = N#Cc1ccc(C[C@@H](N)C(=O)O)cc1; Phe(4-F) = N[C@@H](Cc1ccc(F)cc1)C(=O)O; 2Nal = N[C@@H](Cc1ccc2ccccc2c1)C(=O)O; Pip = O=C(O)[C@@H]1CCCCN1; Dap = NC[C@H](N)C(=O)O; βAla = NCCC(=O)O; Sar = CNCC(=O)O

For this assay, the target named is T1, Pin1 (Homo sapiens, UniProt Q13526, S16A/Y23A).
T1 construct: The full-length human S16A/Y23A mutant Pin1 was expressed and purified from E. coli; made in house
Briefly: Pin1 binding by FA (FITC-labeled peptides). The following applies: FITC-labeled peptide, FA; read-out: KD.

What is called Kd is the equilibrium constant for the complex coming apart.

Take `C[C@@H]1NC(=O)[C@H](CCCNC(=N)N)NC(=O)[C@H](Cc2ccc3ccccc3c2)NC(=O)[C@@H]2CCCCN2C(=O)[C@@H]([C@H](C)O)NC(=O)[C@H](Cc2ccc(F)cc2)NC(=O)[C@@H](Cc2ccc(C#N)cc2)NC(=O)c2cc3cc(c2)C(=O)NC[C@H](NC(=O)[C@@H](Cc2ccccc2)NC1=O)C(=O)N[C@@H](Cc1ccccc1)C(=O)N[C@@H](Cc1ccc2ccccc2c1)C(=O)N[C@@H](CCCNC(=N)N)C(=O)N[C@@H](CCCNC(=N)N)C(=O)N[C@@H](CCCNC(=N)N)C(=O)N[C@@H](CCCNC(=N)N)C(=O)N[C@H](C(=O)N[C@@H](CCCCN)C(N)=O)CNC3=O` [Peptide 38, bicyclo[Tm-(D-4-CyanoPhe-Fpa-D-Thr-Pip-Nal-Arg-Ala-D-Phe)-Dap-(Phe-Nal-Arg-Arg-Arg-Arg-Dap)]-Lys] ([dPhe(4-CN)][Phe(4-F)][dT][Pip][2Nal]RA[dF][Dap]F[2Nal]RRRR[Dap]K-NH2; linker N-9-16 via Trimesoyl; C-terminus assumed): the Kd came out at 350 ± 40 nM. Turning to `C[C@@H]1NC(=O)[C@H](CCCNC(=N)N)NC(=O)[C@H](Cc2ccc3ccccc3c2)NC(=O)[C@@H]2CCCCN2C(=O)[C@@H]([C@H](C)O)NC(=O)[C@H](Cc2ccc(F)c(F)c2)NC(=O)[C@@H](Cc2ccccc2)NC(=O)c2cc3cc(c2)C(=O)NC[C@H](NC(=O)[C@@H](Cc2ccccc2)NC1=O)C(=O)N[C@@H](Cc1ccccc1)C(=O)N[C@@H](Cc1ccc2ccccc2c1)C(=O)N[C@@H](CCCNC(=N)N)C(=O)N[C@@H](CCCNC(=N)N)C(=O)N[C@@H](CCCNC(=N)N)C(=O)N[C@@H](CCCNC(=N)N)C(=O)N[C@H](C(=O)N[C@@H](CCCCN)C(N)=O)CNC3=O` [Peptide 29, bicyclo[Tm-(D-Phe-3,4-diFPhe-D-Thr-Pip-Nal-Arg-Ala-D-Phe)-Dap-(Phe-Nal-Arg-Arg-Arg-Arg-Dap)]-Lys] ([dF][Phe(3,4-F2)][dT][Pip][2Nal]RA[dF][Dap]F[2Nal]RRRR[Dap]K-NH2; linker N-9-16 via Trimesoyl; C-terminus assumed), the Kd turned out to be 410 ± 100 nM.

`C[C@H]1NC(=O)CCNC(=O)[C@H](CCCNC(=N)N)NC(=O)[C@H](Cc2ccc3ccccc3c2)NC(=O)[C@@H]2CCCCN2C(=O)[C@@H](CC(=O)O)NC(=O)CN(C)C(=O)[C@@H]2CCCN2C(=O)c2cc3cc(c2)C(=O)NC[C@H](NC1=O)C(=O)N[C@@H](Cc1ccccc1)C(=O)N[C@@H](Cc1ccc2ccccc2c1)C(=O)N[C@@H](CCCNC(=N)N)C(=O)N[C@@H](CCCNC(=N)N)C(=O)N[C@@H](CCCNC(=N)N)C(=O)N[C@@H](CCCNC(=N)N)C(=O)N[C@H](C(=O)N[C@@H](CCCCN)C(N)=O)CNC3=O` [Peptide 14, bicyclo[Tm-(Pro-Sar-D-Asp-Pip-Nal-Arg-β-Ala-D-Ala)-Dap-(Phe-Nal-Arg-Arg-Arg-Arg-Dap)]-Lys] (P[Sar][dD][Pip][2Nal]R[βAla][dA][Dap]F[2Nal]RRRR[Dap]K-NH2; linker N-9-16 via Trimesoyl; C-terminus assumed): the Kd came out at 1750 ± 180 nM. On to “bicyclo[Tm-(D-4-Phe-Fpa-D-Ile-Pip-Nal-Arg-Ala-D-Phe)-Dap-(Phe-Nal-Arg-Arg-Arg-Arg-Dap)]-Lys [Peptide 39]”, for which the Kd worked out at 460 ± 170 nM. For the compound `C[C@H](O)[C@H]1NC(=O)[C@H](Cc2ccc(F)cc2)NC(=O)[C@@H](Cc2ccccc2)NC(=O)c2cc3cc(c2)C(=O)NC[C@H](NC(=O)[C@H](CCCNC(=N)N)NC(=O)[C@H](Cc2ccc4ccccc4c2)NC(=O)[C@@H]2CCCCN2C1=O)C(=O)N[C@@H](Cc1ccccc1)C(=O)N[C@@H](Cc1ccc2ccccc2c1)C(=O)N[C@@H](CCCNC(=N)N)C(=O)N[C@@H](CCCNC(=N)N)C(=O)N[C@@H](CCCNC(=N)N)C(=O)N[C@@H](CCCNC(=N)N)C(=O)N[C@H](C(=O)N[C@@H](CCCCN)C(N)=O)CNC3=O` [Peptide 12, bicyclo[Tm-(D-Phe-Fpa-D-Thr-Pip-Nal-Arg)-Dap-(Phe-Nal-Arg-Arg-Arg-Arg-Dap)]-Lys] ([dF][Phe(4-F)][dT][Pip][2Nal]R[Dap]F[2Nal]RRRR[Dap]K-NH2; linker N-7-14 via Trimesoyl; C-terminus assumed), the Kd is 2360 ± 480 nM. Take `C[C@H]1NC(=O)[C@H](CCCNC(=N)N)NC(=O)[C@H](CCCNC(=N)N)NC(=O)[C@H](Cc2ccc3ccccc3c2)NC(=O)[C@@H]2CCCCN2C(=O)[C@@H](CC(=O)O)NC(=O)CN(C)C(=O)[C@@H]2CCCN2C(=O)c2cc3cc(c2)C(=O)NC[C@H](NC1=O)C(=O)N[C@@H](Cc1ccccc1)C(=O)N[C@@H](Cc1ccc2ccccc2c1)C(=O)N[C@@H](CCCNC(=N)N)C(=O)N[C@@H](CCCNC(=N)N)C(=O)N[C@@H](CCCNC(=N)N)C(=O)N[C@@H](CCCNC(=N)N)C(=O)N[C@H](C(=O)N[C@@H](CCCCN)C(N)=O)CNC3=O` [Peptide 19, bicyclo[Tm-(Pro-Sar-D-Asp-Pip-Nal-Arg-Arg-D-Ala)-Dap-(Phe-Nal-Arg-Arg-Arg-Arg-Dap)]-Lys] (P[Sar][dD][Pip][2Nal]RR[dA][Dap]F[2Nal]RRRR[Dap]K-NH2; linker N-9-16 via Trimesoyl; C-terminus assumed): the Kd was 720 ± 90 nM. `CC(C)[C@H]1NC(=O)c2cc3cc(c2)C(=O)NC[C@H](NC(=O)[C@@H](C)NC(=O)[C@H](C)NC(=O)[C@H](CCCNC(=N)N)NC(=O)[C@H](Cc2ccc4ccccc4c2)NC(=O)[C@@H]2CCCCN2C(=O)[C@@H]([C@H](C)O)NC(=O)[C@H](Cc2ccc(F)cc2)NC1=O)C(=O)N[C@@H](Cc1ccccc1)C(=O)N[C@@H](Cc1ccc2ccccc2c1)C(=O)N[C@@H](CCCNC(=N)N)C(=O)N[C@@H](CCCNC(=N)N)C(=O)N[C@@H](CCCNC(=N)N)C(=O)N[C@@H](CCCNC(=N)N)C(=O)N[C@H](C(=O)N[C@@H](CCCCN)C(N)=O)CNC3=O` [Peptide 34, bicyclo[Tm-(D-Val-4-Fpa-D-Thr-Pip-Nal-Arg-Ala-D-Ala)-Dap-(Phe-Nal-Arg-Arg-Arg-Arg-Dap)]-Lys] ([dV][Phe(4-F)][dT][Pip][2Nal]RA[dA][Dap]F[2Nal]RRRR[Dap]K-NH2; linker N-9-16 via Trimesoyl; C-terminus assumed): the Kd amounted to 1070 ± 160 nM. Take `CN1CC(=O)N[C@H](CC(=O)O)C(=O)N2CCCC[C@H]2C(=O)N[C@@H](Cc2ccc3ccccc3c2)C(=O)N[C@@H](CCCNC(=N)N)C(=O)N[C@@H](CCCNC(=N)N)C(=O)N[C@H](CC(=O)O)C(=O)N[C@H]2CNC(=O)c3cc(cc(c3)C(=O)N3CCC[C@H]3C1=O)C(=O)NC[C@@H](C(=O)N[C@@H](CCCCN)C(N)=O)NC(=O)[C@H](CCCNC(=N)N)NC(=O)[C@H](CCCNC(=N)N)NC(=O)[C@H](CCCNC(=N)N)NC(=O)[C@H](CCCNC(=N)N)NC(=O)[C@H](Cc1ccc3ccccc3c1)NC(=O)[C@H](Cc1ccccc1)NC2=O` [Peptide 25, bicyclo[Tm-(Pro-Sar-D-Asp-Pip-Nal-Arg-Arg-D-Asp)-Dap-(Phe-Nal-Arg-Arg-Arg-Arg-Dap)]-Lys] (P[Sar][dD][Pip][2Nal]RR[dD][Dap]F[2Nal]RRRR[Dap]K-NH2; linker N-9-16 via Trimesoyl; C-terminus assumed): the Kd stood at 4600 ± 1420 nM. For the compound “bicyclo[Tm-(D-4-Phe-Fpa-D-Nle-Pip-Nal-Arg-Ala-D-Phe)-Dap-(Phe-Nal-Arg-Arg-Arg-Arg-Dap)]-Lys [Peptide 40]”, the Kd is 710 ± 120 nM. For `C[C@H](O)[C@H]1NC(=O)[C@H](Cc2ccc(F)cc2)NC(=O)[C@@H](Cc2ccccc2)NC(=O)c2cc3cc(c2)C(=O)NC[C@H](NC(=O)[C@@H](C)NC(=O)CNC(=O)[C@H](CCCNC(=N)N)NC(=O)[C@H](Cc2ccc4ccccc4c2)NC(=O)[C@@H]2CCCCN2C1=O)C(=O)N[C@@H](Cc1ccccc1)C(=O)N[C@@H](Cc1ccc2ccccc2c1)C(=O)N[C@@H](CCCNC(=N)N)C(=O)N[C@@H](CCCNC(=N)N)C(=O)N[C@@H](CCCNC(=N)N)C(=O)N[C@@H](CCCNC(=N)N)C(=O)N[C@H](C(=O)N[C@@H](CCCCN)C(N)=O)CNC3=O` [Peptide 26, bicyclo[Tm-(D-Phe-4-Fpa-D-Thr-Pip-Nal-Arg-Gly-D-Ala)-Dap-(Phe-Nal-Arg-Arg-Arg-Arg-Dap)]-Lys] ([dF][Phe(4-F)][dT][Pip][2Nal]RG[dA][Dap]F[2Nal]RRRR[Dap]K-NH2; linker N-9-16 via Trimesoyl; C-terminus assumed), the Kd turned out to be 740 ± 110 nM.

On to `CN1CC(=O)N[C@H](CC(=O)O)C(=O)N2CCCC[C@H]2C(=O)N[C@@H](Cc2ccc3ccccc3c2)C(=O)N[C@@H](CCCNC(=N)N)C(=O)N[C@@H](CCCNC(=N)N)C(=O)N[C@H](CCCNC(=N)N)C(=O)N[C@H]2CNC(=O)c3cc(cc(c3)C(=O)N3CCC[C@H]3C1=O)C(=O)NC[C@@H](C(=O)N[C@@H](CCCCN)C(N)=O)NC(=O)[C@H](CCCNC(=N)N)NC(=O)[C@H](CCCNC(=N)N)NC(=O)[C@H](CCCNC(=N)N)NC(=O)[C@H](CCCNC(=N)N)NC(=O)[C@H](Cc1ccc3ccccc3c1)NC(=O)[C@H](Cc1ccccc1)NC2=O` [Peptide 24, bicyclo[Tm-(Pro-Sar-D-Asp-Pip-Nal-Arg-Arg-D-Arg)-Dap-(Phe-Nal-Arg-Arg-Arg-Arg-Dap)]-Lys] (P[Sar][dD][Pip][2Nal]RR[dR][Dap]F[2Nal]RRRR[Dap]K-NH2; linker N-9-16 via Trimesoyl; C-terminus assumed), for which the Kd was 1310 ± 100 nM. As to `CC(C)[C@@H]1NC(=O)[C@H](CCCNC(=N)N)NC(=O)[C@H](Cc2ccc3ccccc3c2)NC(=O)[C@@H]2CCCCN2C(=O)[C@@H](CC(=O)O)NC(=O)CN(C)C(=O)[C@@H]2CCCN2C(=O)c2cc3cc(c2)C(=O)NC[C@H](NC(=O)[C@@H](C)NC1=O)C(=O)N[C@@H](Cc1ccccc1)C(=O)N[C@@H](Cc1ccc2ccccc2c1)C(=O)N[C@@H](CCCNC(=N)N)C(=O)N[C@@H](CCCNC(=N)N)C(=O)N[C@@H](CCCNC(=N)N)C(=O)N[C@@H](CCCNC(=N)N)C(=O)N[C@H](C(=O)N[C@@H](CCCCN)C(N)=O)CNC3=O` [Peptide 18, bicyclo[Tm-(Pro-Sar-D-Asp-Pip-Nal-Arg-Val-D-Ala)-Dap-(Phe-Nal-Arg-Arg-Arg-Arg-Dap)]-Lys] (P[Sar][dD][Pip][2Nal]RV[dA][Dap]F[2Nal]RRRR[Dap]K-NH2; linker N-9-16 via Trimesoyl; C-terminus assumed), the Kd is 1750 ± 240 nM.
